Source: patent US10766857B2, “Compound having BLT inhibitory activity and composition, for preventing or treating inflammatory diseases, comprising same as active ingredient” (DONGGUK UNIVERSITY INDUSTRY-ACADEMIC COOPERATION FOUNDATION, priority 2015, dated 2020)

Molecular target: T1, BLT2 (Homo sapiens, UniProt Q9NPC1)
T1 construct: HA; expressed in transfected cells
T1 sequence (Q9NPC1 with tags, fused parts or gaps): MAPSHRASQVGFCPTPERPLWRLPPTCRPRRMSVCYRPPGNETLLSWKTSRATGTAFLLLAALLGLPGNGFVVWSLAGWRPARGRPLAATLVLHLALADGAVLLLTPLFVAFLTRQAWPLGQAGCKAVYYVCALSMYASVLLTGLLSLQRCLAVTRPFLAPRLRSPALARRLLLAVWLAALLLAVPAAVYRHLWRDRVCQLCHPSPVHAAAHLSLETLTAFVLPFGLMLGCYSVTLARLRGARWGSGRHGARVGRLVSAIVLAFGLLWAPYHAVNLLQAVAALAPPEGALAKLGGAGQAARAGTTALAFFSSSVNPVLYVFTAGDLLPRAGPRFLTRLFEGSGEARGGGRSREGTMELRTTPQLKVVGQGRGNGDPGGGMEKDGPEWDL
Experiment: LTB4-induced chemotactic motility, Transwell, CHO-BLT2 cells
Assay type: cell-based
Conditions: LTB4 300 nM
Procedure: Chemotactic motility was analyzed using a Transwell chamber including a polycarbonate filter (8-μm pore size, Corning Costar) with a 6.5-mm diameter. Specifically, the lower surface of the filter was coated with 10 μg/mL fibronectin in a serum-free RPMI 1640 medium at 37° C. for 1 hour. The experiment was performed by placing the filter dried and coated with RPMI 1640 media containing various amounts of LTB4 in the lower wells of the Transwell chamber, and loading CHO cells stably expressing BLT1 and BLT2 into the upper wells containing serum-free RPMI 1640 media finally at 2×10^4 cells/100 μL. To evaluate the effect of inhibitors, the cells were pre-treated with each inhibitor for 30 minutes before dispensing. After the cells were cultured at 37° C. in 5% CO2 for 3 hours, the filters were fixed with methanol for 3 minutes, and stained with hematoxylin and eosin for 10 minutes. In the experiment, the cells were BLT2-expressing cells (CHO-BLT2 cells) and BLT1-expressing cells (CHO-BLT1 cells), and LY255283 and U75302 were used as positive controls for each type of the cells, and BLT2 ligand LTB4, (300 nM), BLT1 ligand LTB4 (10 nM), and lysophosphatidic acid (LPA; 100 nM) were used as comparative controls. The chemotactic motility was quantitatively analyzed by counting the cells on the lower side of the filter under an optical microscope (magnification, 200×). For each analysis, 6 fields were subjected to counting, each sample was analyzed twice, and the analysis was repeated three times.

Work on `CCCCC(=O)N(CC#Cc1ccc(C(=O)N2CCN(C(C)C)CC2)cc1)c1ccccc1` [LMT-696, N-(3-(4-(4-isopropylpiperazine-1-carbonyl)phenyl)prop-2-ynyl)-N-phenylpentaneamide] yielded an inhibition at 10 µM (10 μM pre-treatment, read-out: chemotactic motility inhibited compared with LTB4 (DMSO+)) of 70.3% and an IC50 (serum-free, read-out: IC50 of chemotactic motility inhibition) of 2000 nM.
